Measured values: PubChem BioAssay (NCI)
Values joined by “and” are separate entries in the source; they are usually repeats but may differ in a detail not shown here. Equal values may be shown once.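 Test compounds were applied to cells in 96-well plates for 48 hours at 5 doses. GI50 is the concentration that inhibits growth by half. TGI denotes the concentration required for complete inhibition of growth.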 Where a SMILES comes first, the peptide text is derived from it. [ ]: non-standard residue; d: D form. The star is where a group is joined. NMeF = CN[CH](Cc1ccccc1)C(=O)O; NMeV = CN[CH](C(=O)O)C(C)C; Boc = CC(C)(C)OC(=O)*

Legend:
Test in all cases: NCI anticancer screen, dose series, 48 h; in the data active means GI50 below about 0.43 µM; inactive means the rest
[1] = test system: 786-0 renal
[2] = test system: A549 NSCLC
[3] = test system: ACHN renal
[4] = test system: CCRF-CEM leukemia
[5] = test system: COLO 205 colon
[6] = test system: DMS 114 small cell lung
[7] = test system: DMS 273 small cell lung
[8] = test system: EKVX NSCLC
[9] = test system: HCC-2998 colon
[10] = test system: HCT-116 colon
[11] = test system: HCT-15 colon
[12] = test system: HL-60(TB) leukemia
[13] = test system: HOP-62 NSCLC
[14] = test system: HT29 colon
[15] = test system: IGROV1 ovarian
[16] = test system: K-562 leukemia
[17] = test system: KM12 colon
[18] = test system: KM20L2 colon
[19] = test system: LOX IMVI melanoma
[20] = test system: LXFL 529 NSCLC
[21] = test system: M14 melanoma
[22] = test system: M19-MEL melanoma
[23] = test system: MALME-3M melanoma
[24] = test system: MOLT-4 leukemia
[25] = test system: NCI-H226 lung
[26] = test system: NCI-H23 lung
[27] = test system: NCI-H460 lung
[28] = test system: NCI-H522 lung
[29] = test system: OVCAR-3 ovarian
[30] = test system: OVCAR-8 ovarian
[31] = test system: RPMI-8226 leukemia
[32] = test system: SF-268 CNS
[33] = test system: SF-295 CNS
[34] = test system: SF-539 CNS
[35] = test system: SK-MEL-28 melanoma
[36] = test system: SK-MEL-5 melanoma
[37] = test system: SK-OV-3 ovarian
[38] = test system: SN12C renal
[39] = test system: SNB-19 CNS
[40] = test system: SR leukemia
[41] = test system: SW-620 colon
[42] = test system: TK-10 renal
[43] = test system: U251 CNS
[44] = test system: UACC-257 melanoma
[45] = test system: UACC-62 melanoma
[46] = test system: UO-31 renal
[47] = test system: XF 498 CNS

CC(C)C(NC(=O)OC(C)(C)C)C(=O)N(C)C(Cc1ccccc1)C(=O)N(C)C(C(=O)O)C(C)C (stereo not drawn) (Boc-Val-[NMeF]-[NMeV]-OH; configuration not given here)
inactive: GI50 [3] 23.1 µM and > 100 µM
> 100 µM: TGI [1] | TGI [2] | TGI [4] | TGI [5] | TGI [6] | TGI [7] | TGI [8] | TGI [9] | TGI [10] | TGI [11] | TGI [12] | TGI [13] | TGI [14] | TGI [15] | TGI [16] | TGI [17] | TGI [18] | TGI [19] | TGI [20] | TGI [21] | TGI [22] | TGI [23] | TGI [24] | TGI [25] | TGI [26] | TGI [27] | TGI [28] | TGI [29] | TGI [30] | TGI [31] | TGI [32] | TGI [33] | TGI [34] | TGI [35] | TGI [36] | TGI [37] | TGI [38] | TGI [39] | TGI [40] | TGI [41] | TGI [42] | TGI [43] | TGI [44] | TGI [45] | TGI [46] | TGI [47]
71 µM and > 100 µM: TGI [3]
